The source of these data is US6821970B2, “Oxazinocarbazoles for the treatment of CNS diseases” (Pharmacia & Upjohn Company, priority 1999, dated 2004).

In general, melting point refers to the temperature of the solid-liquid transition. Usually Ki stands for a dissociation constant, usually derived from enzyme kinetics or from competition with a known ligand. Low readings indicate a stronger hold on the target, high ones a looser hold on the target.

Where a name gives a salt, the structure may show the parent alone.

Data set [1] deals with T1, cloned human 5-HT6 receptor (Homo sapiens, UniProt P50406).
T1 construct: host or cells: HeLa cells (G-418 selected); membrane preparation
T1 sequence (P50406 whole entry): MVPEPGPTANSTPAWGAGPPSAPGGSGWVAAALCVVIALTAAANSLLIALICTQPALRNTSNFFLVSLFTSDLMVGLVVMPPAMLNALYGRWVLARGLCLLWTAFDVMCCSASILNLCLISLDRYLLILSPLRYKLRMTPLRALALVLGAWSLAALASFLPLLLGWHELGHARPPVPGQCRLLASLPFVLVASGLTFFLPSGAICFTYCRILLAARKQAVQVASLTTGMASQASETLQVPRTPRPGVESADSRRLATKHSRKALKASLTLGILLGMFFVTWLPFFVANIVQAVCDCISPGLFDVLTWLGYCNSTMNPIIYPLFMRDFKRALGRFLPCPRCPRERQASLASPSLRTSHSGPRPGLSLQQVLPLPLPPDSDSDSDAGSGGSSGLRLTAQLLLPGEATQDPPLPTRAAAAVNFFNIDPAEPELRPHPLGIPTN
The experiment in a line: 5-HT6 receptor binding assay ([3H]-LSD radioligand, SPA beads). As to conditions: membranes of Hela cells containing cloned human 5-HT6 receptor, IC50 converted by Cheng-Prusoff. On the procedure: 5-HT6 Receport Binding Assay
Growth of Cells and Membrane Preparation
Hela cells containing the cloned human 5-HT6 receptor were acquired from Dr. David R. Sibley's laboratory in National Institute of Health (see Sibley, D. R., J. Neurochemistry, 66, 47-56, 1996). Cells were grown in high glucose Dulbecco's modified Eagle's medium, supplemented with L-glutamine, 0.5% sodium pyruvate, 0.3% penicillin-streptomycin, 0.025% G-418 and 5% Gibco fetal bovine serum and then were harvested, when confluent, in cold phosphate buffered saline.
Harvested intact cells were washed once in cold phosphate-buffered saline. The cells were pelleted and resuspended in 100 ml of cold 50 mM Tris, 5 mM EDTA and 5 mM EGTA, pH 7.4. Homogenization was with a Vir Tishear generator, 4 cycles for 30 seconds each at setting 50. The homogenized cells were centrifuged at […] for 10 minutes and the supernatant was removed. The pellet was resuspended in 100 ml of the above buffer and rehomogenized for 2 cycles. The rehomogenized cells were then centrifuged at […] for 10 minutes and the supernatant was removed. The combined supernatant (200 ml) was centrifuged at 23,000 RPM (80,000×g) for 1 hour in a Beckman Rotor (42.1 Ti). The membrane pellet was resupended in 50-8-ml of assay buffer containing HEPES 20 mM, MgCl2 10 mM, NaCl 150 mM, EDTA 1 mM, pH 7.4 and stored frozen in aliqouts at −70° C.
5-HT6 Receptor Binding Assay
The radioligand binding assay used [^3H]-lysergic acid diethylamide (LSD). The assay was carried out in Wallac 96-well sample plates by the addition of 11 μl of the test sample at the appropriate dilution (the assay employed 11 serial concentrations of samples run in duplicate), 11 μl of radioligand, and 178 μl of a washed mixture of WGA-coated SPA beads and membranes in binding buffer. The plates were shaken for about 5 minutes and then incubated at room temperature for 1 hour. The plates were then loaded into counting cassettes and counted in a Wallac MicroBeta Trilux scintillation counter.
Binding Constant (Ki) Determination
Eleven serial dilutions of test compounds were distributed to assay plates using the PE/Cetus Pro/Pette pipetter. These dilutions were, followed by radioligand and the bead-membrane mixture prepared as described above. The specifically bound cpm obtained were fit to a one-site binding model using GraphPad Prism ver. 2.0. Estimated IC50 values were converted to Ki values using the Cheng-Prusoff equation (Cheng, Y. C. et al., Biochem. Pharmacol., 22, 3099-108, 1973).

Molecule `CCN(CC)CCOc1cccc2c1c1cccc3c1n2C(c1ccccc1)CO3` (centres unmarked) (as salt: maleic acid salt) [Example 3, N,N-Diethyl-2-[(1-phenyl-1,2-dihydro[1,4]oxazino[2,3,4-jk]carbazol-7-yl)oxy]-1-ethanamine] had a melting point of 105 to 107 °C. Turning to `NCCOc1cccc2c1c1cccc3c1n2[C@@H](c1ccccc1)CO3` [Example 1, (S)-(+)-[(1-Phenyl-1,2-dihydro[1,4]oxazino[2,3,4-jk]carbazol-7-yl)oxy]ethanamine], the Ki in data set [1] is 76 nM. This counts as double-digit nanomolar. With `CS(=O)(=O)O.NCCOc1cccc2c1c1cccc3c1n2[C@H](c1ccccc1)CO3` [Example 2, (R)-(−)-[(1-Phenyl-1,2-dihydro[1,4]oxazino[2,3,4-jk]carbazol-7-yl)oxy]ethanamine], the melting point stood at 236 °C.

`CCN(CC)CCOc1cccc2c1c1cccc3c1n2C(c1ccccc1)CO3` (centres unmarked) [Example 3, N,N-Diethyl-2-[(1-phenyl-1,2-dihydro[1,4]oxazino[2,3,4-jk]carbazol-7-yl)oxy]-1-ethanamine] came in with a Ki in data set [1] of 7.6 nM.

Molecule `NCCOc1cccc2c1c1cccc3c1n2C(c1ccccc1)CO3` (centres unmarked) [Example 4, [(1-Phenyl-1,2-dihydro[1,4]oxazino[2,3,4-jk]carbazol-7-yl)oxy]ethanamine] had a Ki in data set [1] of 1.7 nM. With `CCNCCOc1cccc2c1c1cccc3c1n2C(c1ccccc1)CO3.O=C(O)/C=C\C(=O)O` (centres unmarked) [Example 6, N-Ethyl-2-[(1-phenyl-1,2-dihydro[1,4]oxazino[2,3,4-jk]carbazol-7-yl)oxy]-1-ethanamine], the melting point came to 105 °C. Besides, in data set [1], the affinity corresponds to a Ki of 2.7 nM. `O=CNCCOc1cccc2c1c1cccc3c1n2C(c1ccccc1)CO3` (centres unmarked) [Example 7, 2-[(1-Phenyl-1,2-dihydro[1,4]oxazino[2,3,4-jk]carbazol-7-yl)oxy]ethylformamide] came in with an inhibition constant Ki in data set [1] of 39 nM. Still for that read-out and setting: next, `CNCCOc1cccc2c1c1cccc3c1n2C(c1ccccc1)CO3` (centres unmarked) [Example 8, N-Methyl-2-[(1-phenyl-1,2-dihydro[1,4]oxazino[2,3,4-jk]carbazol-7-yl)oxy]-1-ethanamine]: 2 nM; `NCCOc1c(Cl)ccc2c1c1cccc3c1n2C(c1ccccc1)CO3` (centres unmarked) [Example 9, 2-[(8-Chloro-1-phenyl-1,2-dihydro[1,4]oxazino[2,3,4-jk]carbazol-7-yl)oxy]-1-ethanamine]: 5.8 nM. On to `CCNCCOc1cccc2c1c1cc(C)cc3c1n2C(c1ccccc1)CO3` (centres unmarked) [Example 11, N-Ethyl-2-[(5-methyl-1-phenyl-1,2-dihydro[1,4]oxazino[2,3,4-jk]carbazol-7-yl)oxy]-1-ethanamine], for which the affinity in data set [1], expressed as Ki, was 5.3 nM. Molecule `CC(C)(C)OC(=O)N1CCN(CCOc2cccc3c2c2cccc4c2n3C(c2ccccc2)CO4)CC1` (centres unmarked) [Example 12, tert-Butyl 4-{2-[(1-phenyl-1,2-dihydro[1,4]oxazino[2,3,4-jk]carbazol-7-yl)oxy]ethyl}-1-piperazinecarboxylate] had a melting point of 72 °C. Besides, in data set [1], the affinity corresponds to a Ki of 35 nM. `c1ccc(C2COc3cccc4c5c(OCCN6CCNCC6)cccc5n2c34)cc1` (centres unmarked) [Example 13, 1-Phenyl-1,2-dihydro[1,4]oxazino[2,3,4-jk]carbazol-7-yl 2-(1-piperazinyl)ethyl Ether] registered a melting point of 72 °C. Also, the Ki in data set [1] amounted to 57 nM.

In turn, `CN1CCN(CCOc2cccc3c2c2cccc4c2n3C(c2ccccc2)CO4)CC1` (centres unmarked) [Example 14, 2-(4-Methyl-1-piperazinyl)ethyl 1-phenyl-1,2-ihydro[1,4]oxazino [2,3,4-jk]carbazol-7-yl Ether] registered a melting point of 57 °C. Besides, the affinity in data set [1], expressed as Ki, was 6.9 nM. As to `c1ccc(C2COc3cccc4c5c(OCCN6CCOCC6)cccc5n2c34)cc1` (centres unmarked) [Example 15, 2-(4-Morpholinyl)ethyl 1-phenyl-1,2-dihydro[1,4]oxazino[2,3,4-jk]carbazol-7-yl Ether], the Ki in data set [1] stood at 97 nM. On the same count and under the same terms, next, `c1ccc(C2COc3cccc4c5c(OCCN6CCCCC6)cccc5n2c34)cc1` (centres unmarked) [Example 16, 1-Phenyl-1,2-dihydro[1,4]oxazino[2,3,4-jk]carbazol-7-yl 2-(1-piperidinyl)ethyl Ether]: 5 nM; `OCCNCCOc1cccc2c1c1cccc3c1n2C(c1ccccc1)CO3` (centres unmarked) [Example 17, 2-({2-[(1-Phenyl-1,2-dihydro[1,4]oxazino[2,3,4-jk]carbazol-7-yl)oxy]ethyl}amino)-1-ethanol]: 1.1 nM. Regarding `CN(C)CCOc1cccc2c1c1cccc3c1n2C(c1ccccc1)CO3` (centres unmarked) [Example 18, N,N-dimethyl-2-[(1-phenyl-1,2-dihydro[1,4]oxazino[2,3,4-jk]carbazol-7-yl)oxy]-1-ethanamine], the melting point lay within 117 to 118 °C. This molecule also yielded a Ki in data set [1] of 3.3 nM.

Consider `Cc1cc2c3c(c1)c1c(OCCN)cccc1n3C(c1ccccc1)CO2` (centres unmarked) [Example 19, 2-[(5-Methyl-1-phenyl-1,2-dihydro[1,4]oxazino[2,3,4-jk]carbazol-7-yl)oxy]-1-ethanamine], for which the Ki in data set [1] was determined as 8 nM. Still for that read-out and setting: next, `CCN(CC)CCCCOc1cccc2c1c1cccc3c1n2C(c1ccccc1)CO3` (centres unmarked) [Example 20, N,N-Diethyl-N-{4-[(1-phenyl-1,2-dihydro[1,4]oxazino[2,3,4-jk]carbazol-7-yl)oxy]butyl}amine]: 28 nM; `CCN(CC)CCCOc1cccc2c1c1cccc3c1n2C(c1ccccc1)CO3` (centres unmarked) [Example 21, N,N-Diethyl-N-{3-[(1-phenyl-1,2-dihydro[1,4]oxazino[2,3,4-jk]carbazol-7-yl)oxy]propyl}amine]: 19 nM.

`OCCNCCOc1cccc2c1c1cccc3c1n2[C@H](c1ccccc1)CO3` [Example 22, [(2-{[(1R)-1-Phenyl-1,2-dihydro[1,4]oxazino[2,3,4-jk]carbazol-7-yl]oxy}ethyl)amino]ethanol] showed a Ki in data set [1] of 3 nM.
